From patent US9241930B2, “Compositions and methods for treating viral diseases” (NovaDrug, LLC, priority 2011, dated 2016)

Tested on: mouse bone marrow polychromatic erythrocytes
Conditions: mice, single oral gavage

## O=P1(N(CCCl)CCCl)NCCCO1 (centres unmarked) [Cyclophosphamide monohydrate]
  bone marrow cytotoxicity (erythropoiesis): some cytotoxicity
48 hour time-point, p≦0.05
  incidence of micronucleated polychromatic erythrocytes: significant increase
